From patent publication US20260008746A1, “CATIONIC LIPID COMPOUND WITH HIGH EFFICIENCY, LOW TOXICITY AND STABLE EXPRESSION, AND COMPOSITION COMPRISNG SAME” (HANGZHOU TIANLONG PHARMACEUTICAL CO., LTD, priority 2023, published 2026)

Tests used:
[1] = Determination of particle size and polydispersity index (PDI) of lipid nanoparticles by dynamic light scattering; type: physicochemical; conditions: LNP formulation of named cationic lipid/DSPC/cholesterol/DMG-PEG2000 49:10:39.5:1.5; for Particle size (nm): 90° scattering angle, 25° C
Description: The cationic lipids listed in Table 1 were dissolved in ethanol with DSPC (AVT (Shanghai) Pharmaceutical Technology Co., Ltd.), cholesterol (AVT (Shanghai) Pharmaceutical Technology Co., Ltd.) and DMG-PEG2000 according to a molar ratio of 49:10:39.5:1.5, respectively, to prepare lipid solution in ethanol. The lipid solution in ethanol was quickly added to citrate buffer (pH=4 to 5) by ethanol injection method, and vortexed for 30 s for later use. eGFP-mRNA (from Shanghai Biohub International Trade Co., Ltd) or Fluc-mRNA (from Shanghai Biohub International Trade Co., Ltd) was diluted in citrate buffer (pH=4 to 5) to give an aqueous mRNA solution. A certain volume of liposome solution and mRNA aqueous solution were used to prepare liposomes at a weight ratio of total lipids to mRNA of 15:1. The mixtures were sonicated at 25° C. for 15 min (with an ultrasonic frequency of 40 kHz and an ultrasonic power of 800 W). The resulting liposomes were diluted to 10 times volume with PBS, and then ultrafiltered with a 300 KDa ultrafiltration tube to remove ethanol. Then the volume was fixed to a certain volume with PBS to give an LNP formulation encapsulating eGFP-mRNA or Fluc-mRNA using cationic lipid/DSPC/cholesterol/DMG-PEG2000 (49:10:39.5:1.5 in molar percentage).
The particle size and polydispersity index (PDI) were determined by dynamic light scattering using Malvern laser particle size analyzer.
10 μL of the liposome solution was weighed, diluted to 1 mL with RNase-free deionized water, and added to the sample pool. Each sample was measured in triplicate. The measurement conditions were: 90° scattering angle, and 25° C.

[2] = tested on: 293T cells; experiment: Fluorescent detection of Fluc-mRNA (cell transfection efficiency of LNP formulations); type: cell-based; conditions: for Relative light unit (RLU): LNP formulation containing 0.3 μg Fluc-mRNA, 96-well plate, 24 hours; for Multiples (YK-107): RLU of YK-107 / RLU of named substance; for Ratio relative to SM-102: RLU of named substance / RLU of SM-102; for Multiples (YK-101): RLU of YK-101 / RLU of named substance; for Multiples (YK-108): RLU of YK-108 / RLU of named substance
In short: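 293T cells seeded at 10,000 per well, cultured overnight, then given LNP carrying 0.3 μg Fluc-mRNA (cationic:neutral:structured:PEG-lipid 49:10:39.5:1.5 molar). Incubated 24 h. Luciferase signal read with kit reagent on an IVIS imaging system.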

[3] = tested on: 293T cells; experiment: Cell survival rate determination (CCK-8); type: cell-based; conditions: for Cell survival rate (%): LNP formulation containing 1.5 μg Fluc-mRNA, 24 hours, CCK-8, absorbance at 450 nm; for cell survival rate lower than that of YK-101: cell survival rate of YK-101 minus that of named substance; for cell survival rate lower than that of YK-107: cell survival rate of YK-107 minus that of named substance; for cell survival rate lower than that of YK-108: cell survival rate of YK-108 minus that of named substance
In short: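 293T cells were seeded overnight at 10,000 cells/well in 96-well plates, then exposed for 24 h to LNP containing 1.5 μg Fluc-mRNA (cationic:neutral:structural:polymer-conjugated lipid, 49:10:39.5:1.5 molar) or to Lipofectamine 3000. Viability was read by CCK-8, 1 h incubation, absorbance 450 nm.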

[4] = tested on: BALB/C mice; experiment: In vivo imaging of Fluc-mRNA expression in mice delivered by LNP formulations; conditions: for average radiation intensity, 6 h / average radiation intensity, 24 h / average radiation intensity, 48 h / average radiation intensity, 7 d: LNP containing 10 pg Fluc-mRNA, intramuscular, female BALB/C mice
Description: The LNP formulation containing […] Fluc-mRNA was injected intramuscularly into female BALB/C mice aged 4-6 weeks old and weighed 17-19 g, and the mice were intraperitoneally injected with fluorescent imaging substrate at specific time points after administration (6h, 24 h, 48h and 7d), where the mice were allowed to move freely for 5 minutes, and then the average radiation intensity (corresponding to fluorescence expression intensity) of the protein expression of the mRNA carried by the LNP in the mice was detected by the IVIS Spectrum small animal in vivo imaging device. The test results are shown in Tables 11 to 14 and FIGS. 12 to 14.

Row | PDI(%) [1] [%] | Particle size (nm) [1] [nm] | Structure (SMILES) | Relative light unit (RLU) [2] [RLU] | Multiples (YK-107) [2] | Ratio relative to SM-102 [2] | Cell survival rate (%) [3] [%] | cell survival rate lower than that of YK-101 [3] [%] | cell survival rate lower than that of YK-107 [3] [%] | cell survival rate lower than that of YK-108 [3] [%] | average radiation intensity of YK-101, times that of named substance ([4]; 6 h) [times] | average radiation intensity of YK-107, times that of named substance ([4]; 6 h) [times] | average radiation intensity of YK-108, times that of named substance ([4]; 6 h) [times] | average radiation intensity of YK-101, times that of named substance ([4]; 24 h) [times] | average radiation intensity of YK-107, times that of named substance ([4]; 24 h) [times] | average radiation intensity of YK-108, times that of named substance ([4]; 24 h) [times] | average radiation intensity of YK-101, times that of named substance ([4]; 48 h) [times] | average radiation intensity of YK-107, times that of named substance ([4]; 48 h) [times] | average radiation intensity, 6 h ([4]; 6 h) | average radiation intensity, 24 h ([4]; 24 h) | average radiation intensity, 7 d ([4]; 7 d) | other results
1 | 15.4 | 246 | CCCCCCCCCCOC(=O)CCCN(CCCCCC(=O)OCCC(CCCCCC)CCCCCC)CCOCCO [YK-123, 3-hexylnonyl 6-(4-(decyloxy)-4-oxobutyl)(2-(2-hydroxyethoxy-ethyl)amino)hexanoate] | 807703 | 27.68 | 0.53 | 76.68 | 13.44 | 13.77 | 13.18 | 4.7 | 5.0 | 6.4 | 18.0 | 22.2 | 23.9 | 19.9 | 24.2 | 317640 | 58728 | 1414 | cell transfection efficiency, times that of YK-124 [2]: 10 times; fluorescence absorption value, times that of HHMA ([2]; RLU of named substance / RLU of HHMA): 0.39 times; fluorescence absorption value, times that of Lipofectamine 3000 ([2]; RLU of named substance / RLU of Lipofectamine 3000): 0.75 times; Fluc-mRNA expression signal intensity, times that of compound 21 ([2]; RLU of named substance / RLU of compound 21): 0.58 times; fluorescence absorption value, times that of compound 23 ([2]; RLU of named substance / RLU of compound 23): 0.63 times; difference from SM-102 in Fluc-mRNA fluorescence (GraphPad Prism analysis) ([2]; statistical comparison with SM-102): no significant difference; average radiation intensity of YK-108, times that of named substance ([4]; 48 h): 24.7 times; average radiation intensity of YK-101, times that of named substance ([4]; 7 d): 8.6 times; average radiation intensity of YK-107, times that of named substance ([4]; 7 d): 9.4 times; average radiation intensity of YK-108, times that of named substance ([4]; 7 d): 10.0 times; average radiation intensity, 48 h ([4]; 48 h): 9336
2 | 12.2 | 138 | CCCCCCCCCCCCC(O)CN(C)CCCCCC(=O)OCC(CCCCCC)CCCCCCCC (stereo not drawn) [HHMA, reference compound] | 2047757 | 10.92 | 1.33 | 67.77 | 22.35 | 22.68 | 22.09 | 2.3 | 2.5 | 3.2 | 9.1 | 11.3 | 12.2 | 6.0 | 7.3 | 639280 | 115530 | 5235 | Multiples (YK-101) [2]: 9.93; Multiples (YK-108) [2]: 12.04; average radiation intensity of YK-108, times that of named substance ([4]; 48 h): 7.5 times; average radiation intensity of YK-101, times that of named substance ([4]; 7 d): 2.3 times; average radiation intensity of YK-107, times that of named substance ([4]; 7 d): 2.5 times; average radiation intensity of YK-108, times that of named substance ([4]; 7 d): 2.7 times
3 | 12.1 | 205 | CCCCCCCCCCOC(=O)CCCN(CCO)CCCCCC(=O)OCC(CCCCCCCC)CCCCCCCC [YK-009, reference compound] | 5075954 | 4.41 | 3.31 | 73.57 | 16.55 | 16.88 | 16.29 | – | – | – | – | – | – | – | – | 1055200 | 770050 | 10665 | Multiples (YK-101) [2]: 4.01; Multiples (YK-108) [2]: 4.86; average radiation intensity, 48 h ([4]; 48 h): 132100
